These results are taken from patent publication US20160185717A1, “COMPOUNDS WITH ANTIBACTERIAL ACTIVITY” (FUNDACIÓN MEDINA. CENTRO DE EXCELENCIA EN INVESTIGACIÓN DE …, priority 2013, published 2016).

In assay [1] the test system is RNA synthesis in E. coli acrAB::Tn903. The assay is described as follows: Macromolecular labeling assay, RNA synthesis. The format is cell-based, Escherichia coli. Particulars: at up to 8-fold the MIC, [3H] uridine. Here is the method:
(§1) The macromolecular synthesis assay, in which the inhibition of the intracellular building blocks of macromolecules are measured, provides guidance for understanding the broad MOA of compounds
(§2) The inhibitory effect on synthesis of macromolecules in the lipid, cell wall, DNA, RNA and protein synthesis pathways was determined in growing cells of E. coli acrAB::Tn903. Cells were grown at 35° C. overnight on Trypticase Soy agar, and this culture was used to inoculate 15 ml of Mueller Hinton broth II (MHB). The culture was grown to early exponential growth phase (OD600=0.2 to 0.3) while incubating in a shaker at 35° C. and 200 rpm.
(§3) Cells in early exponential phase were exposed to MDN-0057, and their incorporation of radioactive precursors in each pathway was determined. Rifampicin, Ciprofloxacin, Tetracycline, Imipenem and Irgasan were included as positive controls for inhibition of RNA, DNA, protein, cell wall and lipid synthesis, respectively. (FIG. 1)
(§4) DNA, RNA, and protein synthesis: When cells reached early exponential phase, 100 μL of culture was added to triplicate wells containing various concentrations of MDN-0057 or control antibiotics (2.5 μL) at 40× the final concentration in 100% DMSO or deionized water (dH2O). […] After washing five times with 200 μL per well of cold 5% TCA, the filters were allowed to dry, and then counted using a Packard Top Count microplate scintillation counter.

The subject of assay [2] is protein synthesis in E. coli acrAB::Tn903. The assay is described as follows: Macromolecular labeling assay, protein synthesis. In kind it is cell-based, Escherichia coli. The conditions noted are these: at up to 8-fold the MIC, [3H] leucine. The method, then:
as §1, §2, §3, §4

Another assay relates to A. baumannii 2443. In words: Broth microdilution MIC. In kind it is cell-based, Acinetobacter baumannii. The conditions noted are these: A. baumannii 2443, Clinical isolate. Here is the method: (§5) Antibacterial activity of compounds MDN-0057, MDN-0058, MDN-0059 and MDN-0060 was evaluated using the broth microdilution methodology. This method is used to determine minimum inhibitory concentrations (MICs) which are defined as the lowest concentration of an antimicrobial compound that will inhibit the visible growth of a microorganism after overnight incubation.
(§6) In the microbroth dilution assay, microorganisms were selected by streaking bacteria culture from a cryovial into Mueller Hinton II (MHII) agar plate(s) and incubate overnight at 37° C. Thereafter, 3 to 5 characteristic fresh colonies were selected and suspended in 25 mL of MHII broth media for 2 hours shaking at 220 rpm. The 2 hour broth cultures were adjusted to an optical density of 0.111 at 660 nm and then diluted to 1:100 in order to obtain assay inoculums.
(§7) The four compounds evaluated were serially diluted in 100% DMSO with a dilution factor of 2 to provide 10 compound concentrations starting at 8 mg/mL.
(§8) For the assays, 90 μL/well of the appropriated diluted inoculum were mixed with 1.6 μL/well of each compound concentration and 8.4 μL/well of MHII broth media, resulting in an additional dilution of these compounds to yield concentrations in the assay wells from 128 μg/mL to 0.25 μg/mL. After that, the assay plates were read in a Tecan Ultraevolution spectrophotometer at 612 nm for T0 (zero time). Then, the plates were statically incubated at 37° C. for 20 hours. After incubation, they were shaken in a DPC Micromix-5 and read again for Tf (final time). Percentage of growth inhibition was calculated using the following normalization:
(§9) % Inhibition=[1-[(TfSample-T0Sample)−(TfBlank-T0blank)/(TfGrowth-T0Growth)−(TfBlank-T0blank)]×100. • Where, • T0 Sample=the absorbance of the strain growth in the presence of sample measured at zero time (before incubation). • Tf Sample=the absorbance of the strain growth in the presence of sample measured at final time (after incubation) • T0 Growth=the absorbance of the strain growth in the absence of sample measured at zero time (before incubation). • Tf Growth=the absorbance of the strain growth in the absence of sample measured at final time (after incubation). • T0 Blank=the absorbance of the broth medium (blank) measured at zero time (before incubation). • Tf Blank=the absorbance of the broth medium (blank) measured at final time (after incubation).
Background: Broth dilution looks for growth in wells or tubes with falling amounts of substance.

A further assay concerns A. baumannii 2445. The assay is described as follows: Broth microdilution MIC. The format is cell-based, Acinetobacter baumannii. Particulars: A. baumannii 2445, ΔadeABC. The method, then:
as §5, §6, §7, §8, §9

The next assay concerns A. baumannii 5973. In words: Broth microdilution MIC. The format is cell-based, Acinetobacter baumannii. The conditions noted are these: A. baumannii 5973, Clinical isolate. The method, then:
as §5, §6, §7, §8, §9

A further assay deals with A. baumannii ATCC 19606. The assay is described as follows: Broth microdilution MIC. The format is cell-based, Acinetobacter baumannii. Particulars: A. baumannii ATCC 19606, Clinical isolate. The method, then:
as §5, §6, §7, §8, §9

In another assay the test system is A. baumannii 2444. The assay is described as follows: Broth microdilution MIC. In kind it is cell-based, Acinetobacter baumannii. The conditions noted are these: A. baumannii 2444, ΔadellJK. Here is the method: as §5, §6, §7, §8, §9
Assay [3] concerns A. baumannii ATCC BAA-747. The assay is described as follows: Broth microdilution MIC. In kind it is cell-based, Acinetobacter baumannii. The conditions noted are these: A. baumannii ATCC BAA-747, Clinical isolate. The method, then: as §5, §6, §7, §8, §9
The next assay has as its system A. baumannii 2446. In words: Broth microdilution MIC. The format is cell-based, Acinetobacter baumannii. Particulars: A. baumannii 2446, ΔadeABC, ΔadellJK. The method, then:
as §5, §6, §7, §8, §9

Broadly, the MIC is the smallest concentration in the dilution series that meets the test's criterion for growth inhibition. A lower MIC goes with a more susceptible organism.

SMILES strings stand for the structures. Values after ≈ are worked out from the molar mass of the structure shown.

In the case of `[C-]#[N+]C(=C)C(Cc1ccc(OC)cc1)([N+]#[C-])C1CC(O)CCC1OC(=O)CO` (stereo not drawn) [MDN-0057], in assay [1], the “Inhibition of RNA synthesis” value was “Little or no inhibition”. Further, the “Inhibition of protein synthesis” value in assay [2] is “Little or no inhibition”. For the same compound, the MIC in the assay on A. baumannii 2443 was 4 µg/mL (≈ 10.4 µM); in the assay on A. baumannii 2445 it was 2 µg/mL (≈ 5.2 µM); against A. baumannii 5973 it was 0.25 µg/mL (≈ 0.65 µM); against A. baumannii ATCC 19606, 2 to 4 µg/mL; against A. baumannii 2444 it was 0.25 µg/mL (≈ 0.65 µM); in assay [3] it was 2 to 4 µg/mL. Moreover, in the assay on A. baumannii 2446, the MIC was under 0.06 µg/mL.
